According to patent US20230365546A1, “5-SUBSTITUTED INDOLE 3-AMIDE DERIVATIVES, PREPARATION METHOD AND USE THEREOF” (ORIGIANT PHARMACEUTICAL CO., LTD, priority 2020, published 2023):
pEC50, pIC50: −log10 of the molar value.

How the values were obtained:
RIPK1 = RIPK1 (Homo sapiens (Human), UniProt Q13546); experiment: In vitro kinase assay (Eurofins Kinase Profiler), IC50; format: biochemical; conditions: 0.001-10 μM, read-out: RIPK 1 (IC50)
HT-29 cells = experiment: Protection against programmed necrosis of HT-29 cells (TNF α/Smac mimetic/Z-VAD-FMK, CCK8); format: cell-based; conditions: Homo sapiens, TNF α/Smac mimetic/Z-VAD-FMK induced 24 h, CCK8, read-out: HT-29 (EC50)
Description: In vitro protection against programmed necrosis of HT-29 cells was conducted by ourselves.
DMEM medium was purchased from Gibco Inc., penicillin and streptomycin were purchased from HyClone Inc., TNF α was purchased from PeproTech Inc., Smac mimetic and Z-VAD-FMK were purchased from Selleck Inc., CCK8 was purchased from Medchem Express Inc.
HT-29 cells (colon cancer cells) were cultured in DMEM+10% FBS+Penicillin/Streptomycin medium. During the experiments, HT-29 cells in logarithmic growth phase were harvested, seeded in a 96-well plate at specific numbers per well (typically 8×10^3 cells/well of adherent cells) and cultured overnight in a 37° C., 5% CO2 cell culture incubator. The next day, the compounds to be tested were diluted with culture medium to the corresponding concentrations and added into the corresponding wells of a 96-well plate, with 3 replicate wells for each sample, and a Vehicle control group and a blank Control group containing only culture medium were set at the same time. […] The absorbance was measured at 495 nm wavelength using a microplate reader, and the protection rate of the drug on the cells necrosis was calculated according to the following formula:
Protection rate of cell necrosis=[(X−C0)/(C−C0)]×100%
Wherein, C, C0, and X represent the mean absorbance values of the Vehicle control group, Blank control group and Drug treatment group, respectively.

RIPK1, sequence (Q13546 whole entry): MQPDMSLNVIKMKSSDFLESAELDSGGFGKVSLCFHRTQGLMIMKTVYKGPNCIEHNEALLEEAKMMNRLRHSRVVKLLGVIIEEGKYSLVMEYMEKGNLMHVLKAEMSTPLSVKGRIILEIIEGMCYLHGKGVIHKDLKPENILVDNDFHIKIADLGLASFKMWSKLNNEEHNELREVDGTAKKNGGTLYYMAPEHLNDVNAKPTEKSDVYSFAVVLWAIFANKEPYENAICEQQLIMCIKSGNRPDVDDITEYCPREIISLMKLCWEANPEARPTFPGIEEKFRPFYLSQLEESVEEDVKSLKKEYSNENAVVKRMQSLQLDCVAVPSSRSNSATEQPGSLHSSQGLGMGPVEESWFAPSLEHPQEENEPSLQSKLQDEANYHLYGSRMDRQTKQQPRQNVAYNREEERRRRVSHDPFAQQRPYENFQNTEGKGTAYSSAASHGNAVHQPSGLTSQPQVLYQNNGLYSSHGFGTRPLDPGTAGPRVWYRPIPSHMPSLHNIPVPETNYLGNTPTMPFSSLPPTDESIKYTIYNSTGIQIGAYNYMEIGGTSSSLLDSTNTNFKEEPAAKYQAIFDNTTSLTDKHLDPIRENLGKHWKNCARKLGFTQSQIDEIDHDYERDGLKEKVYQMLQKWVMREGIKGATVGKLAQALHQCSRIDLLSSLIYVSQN

SMILES | pIC50 (RIPK1) | pEC50 (HT-29 cells)
O=C(NCc1ccc(N2CCOCC2)cc1)c1c[nH]c2ccc(-c3ccn4nc(NC(=O)C5CC5)nc4c3)cc12 [Compound 97] | ≤ 6.00 | ≤ 6.00
Cn1cc(C(=O)NCc2ccc(N3CCOCC3)cc2)c2cc(-c3ccn4nc(NC(=O)C5CC5)nc4c3)ccc21 [Compound 98] | ≤ 6.00 | ≤ 6.00
O=C(NCc1ccc(N2CCOCC2)cc1)c1c[nH]c2ccc(-c3ccc4nc(NC(=O)C5CC5)sc4n3)cc12 [Compound 99] | ≤ 6.00 | ≤ 6.00
Cn1cc(C(=O)NCc2ccc(N3CCOCC3)cc2)c2cc(-c3ccc4nc(NC(=O)C5CC5)sc4n3)ccc21 [Compound 100] | ≤ 6.00 | ≤ 6.00
Cc1ccc(CCNC(=O)c2n[nH]c3ccc(-c4ccc5c(N)ncnn45)cc23)cc1 [Compound 101] | 7.00 to 8.00 | 6.00 to 7.00
Nc1ncnn2c(-c3ccc4[nH]nc(C(=O)NCCc5cccc(F)c5)c4c3)ccc12 [Compound 102] | 6.00 to 7.00 | 6.00 to 7.00
Nc1ncnn2c(-c3ccc4[nH]nc(C(=O)NCCc5ccc(F)cc5)c4c3)ccc12 [Compound 103] | 7.00 to 8.00 | 6.00 to 7.00
C[C@H](NC(=O)c1cn(C)c2ccc(-c3ccc4c(NC(=O)C5CC5)n[nH]c4c3)cc12)c1cccc(F)c1 [Compound 104] | 8.00 to 9.00 | > 9.00
CC(C)C(=O)Nc1nc2cc(-c3ccc4c(c3)c(C(=O)NC(C)c3ccccc3)cn4C)ccn2n1 (centres unmarked) [Compound 105] | 7.00 to 8.00 | 8.00 to 9.00
CC(C)C(=O)Nc1nc2cc(-c3ccc4c(c3)c(C(=O)N[C@@H](C)c3cccc(F)c3)cn4C)ccn2n1 [Compound 106] | 8.00 to 9.00 | > 9.00
CC(C)C(=O)Nc1nc2ccc(-c3ccc4c(c3)c(C(=O)N[C@@H](C)c3cccc(F)c3)cn4C)cn2n1 [Compound 107] | 7.00 to 8.00 | 8.00 to 9.00
C[C@H](NC(=O)c1cn(C)c2ccc(-c3ccn4nc(NC(=O)C5CC5)cc4n3)cc12)c1cccc(F)c1 [Compound 108] | 8.00 to 9.00 | 8.00 to 9.00
C[C@H](NC(=O)c1cn(C)c2ccc(-c3ccc4nc(NC(=O)C5CC5)cn4n3)cc12)c1cccc(F)c1 [Compound 109] | 8.00 to 9.00 | > 9.00
CCn1cc(C(=O)N[C@@H](C)c2cccc(F)c2)c2cc(-c3ccc4c(NC(=O)C5CC5)n[nH]c4c3)ccc21 [Compound 111] | 8.00 to 9.00 | > 9.00
CC(C)n1cc(C(=O)N[C@@H](C)c2cccc(F)c2)c2cc(-c3ccc4c(NC(=O)C5CC5)n[nH]c4c3)ccc21 [Compound 112] | 7.00 to 8.00 | 8.00 to 9.00
CCCn1cc(C(=O)N[C@@H](C)c2cccc(F)c2)c2cc(-c3ccc4c(NC(=O)C5CC5)n[nH]c4c3)ccc21 [Compound 113] | 8.00 to 9.00 | 8.00 to 9.00
CC(C)Cn1cc(C(=O)N[C@@H](C)c2cccc(F)c2)c2cc(-c3ccc4c(NC(=O)C5CC5)n[nH]c4c3)ccc21 [Compound 115] | 8.00 to 9.00 | 7.00 to 8.00
COCCn1cc(C(=O)N[C@@H](C)c2cccc(F)c2)c2cc(-c3ccc4c(NC(=O)C5CC5)n[nH]c4c3)ccc21 [Compound 116] | 8.00 to 9.00 | 7.00 to 8.00
C[C@H](NC(=O)c1cn(C)c2ccc(-c3ccc4c(NC(=O)C5CC5)c[nH]c4c3)cc12)c1cccc(F)c1 [Compound 117] | 7.00 to 8.00 | 7.00 to 8.00
C[C@H](NC(=O)c1cn(C)c2ccc(-c3ccc4c(C(=O)NC5CC5)c[nH]c4c3)cc12)c1cccc(F)c1 [Compound 118] | 7.00 to 8.00 | 8.00 to 9.00
C[C@H](NC(=O)c1cn(C)c2ccc(-c3ccc4c(C(=O)NCC(C)(C)C)c[nH]c4c3)cc12)c1cccc(F)c1 [Compound 119] | 8.00 to 9.00 | 8.00 to 9.00
Cc1ccc([C@H](C)NC(=O)c2cn(C)c3ccc(-c4ccn5nc(NC(=O)C6CC6)nc5c4)cc23)cc1 [Compound 120] | 8.00 to 9.00 | > 9.00

SMILES | pIC50 (RIPK1) | pEC50 (HT-29 cells)
CC(C)C(=O)Nc1nc2cc(-c3ccc4c(c3)c(C(=O)N[C@H](C)c3ccccc3)cn4C)ccn2n1 [Compound 121] | 7.00 to 8.00 | 8.00 to 9.00
CC(C)C(=O)Nc1nc2cc(-c3ccc4c(c3)c(C(=O)N[C@@H](C)c3ccccc3)cn4C)ccn2n1 [Compound 122] | 8.00 to 9.00 | > 9.00
CC(C)C(=O)Nc1nc2cc(-c3ccc4c(c3)c(C(=O)NC(C)(C)c3ccccc3)cn4C)ccn2n1 [Compound 123] | 7.00 to 8.00 | 8.00 to 9.00
CC(C)C(=O)Nc1nc2cc(-c3ccc4c(c3)c(C(=O)NC(C)c3cccc(F)c3)cn4C)ccn2n1 (centres unmarked) [Compound 124] | 7.00 to 8.00 | 8.00 to 9.00
CC(C)C(=O)Nc1nc2cc(-c3ccc4c(c3)c(C(=O)N[C@H](C)c3cccc(F)c3)cn4C)ccn2n1 [Compound 125] | ≤ 6.00 | ≤ 6.00
CC(C)C(=O)Nc1nc2cc(-c3ccc4c(c3)c(C(=O)N[C@H](C)c3cccc(Cl)c3)cn4C)ccn2n1 [Compound 126] | 7.00 to 8.00 | 7.00 to 8.00
CC(C)C(=O)Nc1nc2cc(-c3ccc4c(c3)c(C(=O)N[C@@H](C)c3cccc(Cl)c3)cn4C)ccn2n1 [Compound 127] | 7.00 to 8.00 | > 9.00
COc1cccc([C@@H](C)NC(=O)c2cn(C)c3ccc(-c4ccn5nc(NC(=O)C(C)C)nc5c4)cc23)c1 [Compound 128] | 6.00 to 7.00 | 6.00 to 7.00
COc1cccc([C@H](C)NC(=O)c2cn(C)c3ccc(-c4ccn5nc(NC(=O)C(C)C)nc5c4)cc23)c1 [Compound 129] | 7.00 to 8.00 | 8.00 to 9.00
CC(C)C(=O)Nc1nc2cc(-c3ccc4c(c3)c(C(=O)NC(C)c3ccc(F)cc3)cn4C)ccn2n1 (centres unmarked) [Compound 130] | 7.00 to 8.00 | 8.00 to 9.00
CC(C)C(=O)Nc1nc2cc(-c3ccc4c(c3)c(C(=O)N[C@@H](C)c3ccc(F)cc3)cn4C)ccn2n1 [Compound 131] | 7.00 to 8.00 | > 9.00
CC(C)C(=O)Nc1nc2cc(-c3ccc4c(c3)c(C(=O)N[C@H](C)c3ccc(F)cc3)cn4C)ccn2n1 [Compound 132] | 6.00 to 7.00 | 6.00 to 7.00
COc1ccc([C@H](C)NC(=O)c2cn(C)c3ccc(-c4ccn5nc(NC(=O)C(C)C)nc5c4)cc23)cc1 [Compound 133] | 7.00 to 8.00 | > 9.00
COc1ccc([C@@H](C)NC(=O)c2cn(C)c3ccc(-c4ccn5nc(NC(=O)C(C)C)nc5c4)cc23)cc1 [Compound 134] | ≤ 6.00 | 6.00 to 7.00
CC(C)C(=O)Nc1nc2cc(-c3ccc4c(c3)c(C(=O)NC(C)c3ccccn3)cn4C)ccn2n1 (centres unmarked) [Compound 135] | 7.00 to 8.00 | 8.00 to 9.00
CC(C)C(=O)Nc1nc2cc(-c3ccc4c(c3)c(C(=O)N[C@H](C)c3ccccn3)cn4C)ccn2n1 [Compound 136] | 6.00 to 7.00 | 7.00 to 8.00
CC(C)C(=O)Nc1nc2cc(-c3ccc4c(c3)c(C(=O)N[C@@H](C)c3ccccn3)cn4C)ccn2n1 [Compound 137] | 7.00 to 8.00 | > 9.00
CC(C)C(=O)Nc1nc2cc(-c3ccc4c(c3)c(C(=O)NC(C)c3cccnc3)cn4C)ccn2n1 (centres unmarked) [Compound 138] | ≤ 6.00 | ≤ 6.00
CC(C)C(=O)Nc1nc2cc(-c3ccc4c(c3)c(C(=O)NC(C)c3ccncc3)cn4C)ccn2n1 (centres unmarked) [Compound 139] | 7.00 to 8.00 | 7.00 to 8.00
CC(C)C(=O)Nc1nc2cc(-c3ccc4c(c3)c(C(=O)N[C@H]3CCCc5ccccc53)cn4C)ccn2n1 [Compound 140] | 6.00 to 7.00 | 7.00 to 8.00
C[C@H](NC(=O)c1cn(C)c2ccc(-c3ccn4nc(N)nc4c3)cc12)c1cccc(F)c1 [Compound 141, (S)-5-(2-amino-[1,2,4]triazolo[1,5-a]pyridin-7-yl)-N-(1-(3-fluorophenyl)ethyl)-1-methyl-1H-indole-3-carboxamide] | 7.00 to 8.00 | 8.00 to 9.00
